Read-outs that look alike come from different tables or passages of the source.
Legend:
PKMYT1 = biological target: T1, PKMYT1 (Homo sapiens, UniProt Q99640); test: ADP-Glo PKMYT1 ATP-depletion assay; conditions: 50 nM PKMYT1, 13.3 nM CDK1, read-out: Biochemical IC50
T1 construct: PKMYT1 (93 kD, full length, N-terminal GST tag from Signal Chem); GST (N); purchased Signal Chem
T1 sequence (Q99640 1-499): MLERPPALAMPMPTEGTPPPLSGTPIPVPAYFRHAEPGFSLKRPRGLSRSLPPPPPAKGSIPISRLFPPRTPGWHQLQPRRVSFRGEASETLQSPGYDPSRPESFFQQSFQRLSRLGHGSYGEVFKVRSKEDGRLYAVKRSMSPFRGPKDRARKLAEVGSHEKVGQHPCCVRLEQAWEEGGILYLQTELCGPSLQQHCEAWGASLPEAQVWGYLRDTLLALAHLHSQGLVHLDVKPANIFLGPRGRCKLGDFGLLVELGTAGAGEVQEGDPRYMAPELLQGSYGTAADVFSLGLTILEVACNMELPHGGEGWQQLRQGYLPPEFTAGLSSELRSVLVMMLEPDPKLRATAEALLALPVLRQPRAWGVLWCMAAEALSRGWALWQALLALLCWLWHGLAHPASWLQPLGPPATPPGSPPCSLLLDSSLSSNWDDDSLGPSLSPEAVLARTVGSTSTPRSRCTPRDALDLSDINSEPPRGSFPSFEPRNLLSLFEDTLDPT
Method in brief: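 Full-length N-terminal GST-tagged PKMYT1 (50 nM) with GST-CDK1 (13.3 nM) as substrate and 88 µM ATP, in Hepes buffer with MgCl2, MnCl2, DTT and BSA; DMSO <1%. Incubated 120 min at RT. ADP formed was quantified by ADP-Glo luminescence and used to derive biochemical IC50.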

[1] = test system: phosphorylation of CDK1 at Thr14 in HCC1806 cells; test: Cell lysate AlphaLISA assay measuring inhibition of phosphorylation of CDK1 Thr14; format: cell-based; conditions: read-out: Cellular IC50
Method in brief: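 HCC1806 cells seeded overnight, then treated 4 h at 37 °C, 5% CO2 with compounds in DMSO; washed and lysed, lysates frozen overnight at −80 °C. CDK1 Thr14 phosphorylation read by AlphaLISA SureFire Ultra; data normalized to DMSO (0% inhibition) and 3 μM reference compound to give IC50.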

Row | Compound | IC50 (PKMYT1) [nM] | IC50 ([1]; Homo sapiens, HCC1806, 4 h) [nM] | IC50 ([1]; 4 hours) [nM]
1 | Cc1ccc(O)c(C)c1-c1c(N)c(C(N)=O)nc2cccnc12 [Compound 3, 3-Amino-4-(3-hydroxy-2,6-dimethylphenyl)-1,5-naphthyridine-2-carboxamide] | < 50 | 50 to 500 | 
2 | Cc1cnc2c(-c3cccc(O)c3C)c(N)c(C(N)=O)cc2n1 (atropisomer, axis not shown) [Compound 201] | ≥ 5000 |  | ≥ 5000
3 | Cc1cccc(-c2c(N)c(C(N)=O)cc3cc(Cl)cnc23)c1C (atropisomer, axis not shown) [Compound 180] | 50 to 500 | 1000 to 5000 | 
4 | Cc1cnc2cc(C(N)=O)c(N)c(-c3cccc(O)c3C)c2n1 (atropisomer, axis not shown) [Compound 169] | 50 to 500 |  | 500 to 1000
5 | Cc1ccc(O)c(C)c1-c1c(N)c(C(N)=O)nc2ccccc12 (atropisomer, axis not shown; (P)) [Compound 45, (P)-3-amino-4-(3-hydroxy-2,6-dimethylphenyl)quinoline-2-carboxamide] | 1000 to 5000 |  | ≥ 5000
6 | Cc1c(O)cccc1-c1c(N)c(C(N)=O)cc2nccc(C#N)c12 [Compound 241] | < 50 | < 50 | 
7 | Cc1ccc(-c2c(N)c(C(N)=O)nc3cccnc23)c(C)c1O [Compound 292] | 50 to 500 |  | 500 to 1000
8 | Cc1ccc(O)c(C)c1-c1c(N)c(C(N)=O)nc2ccc(Cl)cc12 (single isomer, unassigned) [Compound 53, (M)-3-Amino-6-chloro-4-(3-hydroxy-2,6-dimethylphenyl)quinoline-2-carboxamide] | 50 to 500 |  | 1000 to 5000
9 | Cc1c(Cl)cncc1C1=c2ncccc2=NC(C(N)=O)C1N (centres unmarked) [Compound 239] | ≥ 5000 |  | ≥ 5000
10 | Cc1cnc2c(-c3c(C)ccc(O)c3C)c(N)c(C(N)=O)cc2n1 (atropisomer, axis not shown) [Compound 223] | ≥ 5000 |  | ≥ 5000
11 | Cc1ccc(O)c(C)c1-c1c(N)c(C(N)=O)cc2cccnc12 [Compound 64, 7-Amino-8-(3-hydroxy-2,6-dimethylphenyl)quinoline-6-carboxamide] | 50 to 500 | 50 to 500 | 
12 | Cc1c(O)cccc1-c1c(N)c(C(N)=O)nc2nccnc12 [Compound 11, 7-Amino-8-(3-hydroxy-2-methylphenyl)pyrido[2,3-b]pyrazine-6-carboxamide] | < 50 | 50 to 500 | 
13 | CCn1ccc2cc(C(N)=O)c(N)c(-c3cccc(O)c3C)c2c1=O [Compound 324] | 50 to 500 |  | 500 to 1000
14 | Cc1c(O)cccc1-c1c(N)c(C(N)=O)nc2cc(C(F)(F)F)ccc12 [Compound 59, 3-Amino-4-(3-hydroxy-2-methylphenyl)-7-(trifluoromethyl) quinoline-2-carboxamide] | ≥ 5000 |  | 1000 to 5000
15 | COc1ccnc2c(-c3c(C)ccc(O)c3C)c(N)c(C(N)=O)cc12 [Compound 330] | < 50 | < 50 | 
16 | Cc1c(O)cccc1-c1c(N)c(C(N)=O)cc2ncc(C(F)(F)F)nc12 (single isomer, unassigned) [Compound 124, (P)-7-Amino-8-(3-hydroxy-2-methylphenyl)-2-(trifluoromethyl)quinoxaline-6-carboxamide] | < 50 |  | 50 to 500
17 | Cc1c(O)cccc1-c1c(N)c(C(N)=O)nc2cc(C(F)(F)F)ccc12 (atropisomer, axis not shown) [Compound 147] | 1000 to 5000 |  | 1000 to 5000
18 | Cc1c(O)cccc1-c1c(N)c(C(N)=O)cc2ncc(C(F)(F)F)nc12 [Compound 115, 7-Amino-8-(3-hydroxy-2-methylphenyl)-2-(trifluoromethyl)quinoxaline-6-carboxamide] | 50 to 500 |  | 500 to 1000
19 | Cc1nc2cc(C(N)=O)c(N)c(-c3cccc(O)c3C)c2nc1C (single isomer, unassigned) [Compound 92, (P)-7-Amino-8-(3-hydroxy-2-methylphenyl)-2,3-dimethylquinoxaline-6-carboxamide] | < 50 |  | 50 to 500
20 | Cc1ccc2[nH]ncc2c1-c1c(N)c(C(N)=O)nc2ccccc12 [Compound 17, 3-Amino-4-(5-methyl-1H-indazol-4-yl)quinoline-2-carboxamide] | 500 to 1000 | ≥ 5000 | 
21 | COc1cccc(-c2c(N)c(C(N)=O)nc3cccnc23)c1C [Compound 1, 3-Amino-4-(3-methoxy-2-methylphenyl)-1,5-naphthyridine-2-carboxamide] | ≥ 5000 | ≥ 5000 | 
22 | Cc1ccc(O)cc1-c1c(N)c(C(N)=O)cc2nccnc12 [Compound 123, 7-Amino-8-(5-hydroxy-2-methylphenyl)quinoxaline-6-carboxamide] | 50 to 500 |  | 1000 to 5000

Row | Compound | IC50 (PKMYT1) [nM] | IC50 ([1]; Homo sapiens, HCC1806, 4 h) [nM] | IC50 ([1]; 4 hours) [nM]
23 | NC(=O)c1cc2nccnc2c(-c2cccc3cncn23)c1N [Compound 316] | 500 to 1000 | ≥ 5000 | 
24 | Cc1c(O)cccc1-c1cc(C(N)=O)nc2c(C)ccc(C)c12 [Compound 52, 4-(3-Hydroxy-2-methylphenyl)-5,8-dimethylquinoline-2-carboxamide] | ≥ 5000 | ≥ 5000 | 
25 | Cc1cnc2cc(C(N)=O)c(N)c(-c3c(C)ccc(O)c3C)c2n1 (atropisomer, axis not shown) [Compound 192] | ≥ 5000 |  | ≥ 5000
26 | NC(=O)c1cc2nccnc2c(-c2ccc3ncoc3c2)c1N [Compound 198] | ≥ 5000 | ≥ 5000 | 
27 | Cc1ccc(O)c(C)c1-c1c(N)c(C(N)=O)cc2cccnc12 (single isomer, unassigned) [Compound 66, (P)-7-amino-8-(3-hydroxy-2,6-dimethyl-phenyl)quinoline-6-carboxamide] | < 50 |  | 50 to 500
28 | NC(=O)c1cc2nccnc2c(-c2cncc(O)c2)c1N [Compound 145] | 50 to 500 | ≥ 5000 | 
29 | COc1cncc(-c2c(N)c(C(N)=O)nc3cccnc23)c1C [Compound 153] | 50 to 500 |  | 500 to 1000
30 | NC(=O)c1cc2nccnc2c(-c2cccc3sncc23)c1N [Compound 214] | 500 to 1000 | ≥ 5000 | 
31 | Cc1c(-c2c(N)c(C(N)=O)cc3nccnc23)ccc(F)c1O (atropisomer, axis not shown) [Compound 307] | 1000 to 5000 |  | ≥ 5000
32 | Cc1ccc(C#N)cc1-c1c(N)c(C(N)=O)nc2cccnc12 [Compound 254] | ≥ 5000 | ≥ 5000 | 
33 | Cc1ccc(O)c(C)c1-c1c(N)c(C(N)=O)nc2ccccc12 (atropisomer, axis not shown; (M)) [Compound 44, (M)-3-Amino-4-(3-hydroxy-2,6-dimethylphenyl)quinoline-2-carboxamide] | 50 to 500 |  | 1000 to 5000
34 | COc1ccc2nc(C(N)=O)c(N)c(-c3cccc(O)c3C)c2n1 [Compound 157] | < 50 |  | 50 to 500
35 | NC(=O)c1cc2nccnc2c(-c2cc(O)ccc2C(F)(F)F)c1N [Compound 215] | ≥ 5000 | ≥ 5000 | 
36 | NC(=O)c1cc2nccnc2c(-c2cccc(O)c2Cl)c1N (single isomer, unassigned) [Compound 106, (M)-7-amino-8-(2-chloro-3-hydroxyphenyl)quinoxaline-6-carboxamide] | ≥ 5000 |  | ≥ 5000
37 | Cc1c(O)cccc1-c1c(N)c(C(N)=O)nc2cccc(F)c12 (single isomer, unassigned) [Compound 57, (P)-3-Amino-5-fluoro-4-(3-hydroxy-2-methylphenyl)quinoline-2-carboxamide] | < 50 |  | 50 to 500
38 | Cc1ccc(O)c(C)c1-c1c(N)c(C(N)=O)nc2ccc(F)cc12 (atropisomer, axis not shown; (P)) [Compound 24, (P)-3-amino-6-fluoro-4-(3-hydroxy-2,6-dimethylphenyl) quinoline-2-carboxamide] | 1000 to 5000 |  | ≥ 5000
39 | NC(=O)c1nc2c(c(-c3cc(O)cnc3F)c1N)NCCC2 (atropisomer, axis not shown) [Compound 296] | ≥ 5000 |  | ≥ 5000
40 | NC(=O)c1cc2nccnc2c(-c2cccc(O)c2C(F)(F)F)c1N [Compound 199] | 50 to 500 | 1000 to 5000 | 
41 | COc1cncc(-c2c(N)c(C(N)=O)nc3cccnc23)c1C (atropisomer, axis not shown) [Compound 185] | ≥ 5000 |  | ≥ 5000
42 | Cc1c(O)cccc1-c1c(N)c(C(N)=O)nc2cccc(S(C)(=O)=O)c12 [Compound 319] | 50 to 500 | 500 to 1000 | 
43 | NC(=O)c1cc2nccnc2c(-c2cc(O)cnc2Cl)c1N (atropisomer, axis not shown) [Compound 163] | 1000 to 5000 |  | ≥ 5000

— patent publication US20260176270A1 (Exelixis, Inc., priority 2022, published 2026)
